Structures are written as SMILES.

As usually defined, the melting point is the temperature of the solid-liquid transition.

As for `CN(C(=O)CN1CCNCC1)c1ccc(N/C(=C2\C(=O)Nc3ccc([N+](=O)[O-])cc32)c2ccccc2)cc1.Cl.Cl`, the melting point lay within 246 to 248 °C.

Take `Cl.NCc1ccc(N/C(=C2\C(=O)Nc3ccc([N+](=O)[O-])cc32)c2ccccc2)cc1`: the melting point is more than 370 °C.

Turning to `Cl.NCC(=O)NCc1ccc(N/C(=C2\C(=O)Nc3ccc([N+](=O)[O-])cc32)c2ccccc2)cc1`, the melting point fell in the range of 225 to 228 °C.

Take `CNCC(=O)NCc1ccc(N/C(=C2\C(=O)Nc3ccc([N+](=O)[O-])cc32)c2ccccc2)cc1.Cl`: the melting point lay within 195 to 198 °C.

`CNCc1ccc(N/C(=C2\C(=O)Nc3ccc([N+](=O)[O-])cc32)c2ccccc2)cc1.Cl` displayed a melting point of 351 °C.

`C[C@H](N)c1ccc(N/C(=C2\C(=O)Nc3ccc([N+](=O)[O-])cc32)c2ccccc2)cc1.Cl` had a melting point of 230 to 235 °C.

Take `C[C@@H](N)c1ccc(N/C(=C2\C(=O)Nc3ccc([N+](=O)[O-])cc32)c2ccccc2)cc1.Cl`: the melting point was in the range of 230 to 235 °C.

As to `Cl.NCCc1ccc(N/C(=C2\C(=O)Nc3ccc([N+](=O)[O-])cc32)c2ccccc2)cc1`, the melting point was 335 to 340 °C (dec.).

The molecule `Cl.NCC(=O)NCc1cccc(N/C(=C2\C(=O)Nc3ccc([N+](=O)[O-])cc32)c2ccccc2)c1` came in with a melting point of 309 °C.

The molecule `CN(C)Cc1ccc(N/C(=C2\C(=O)Nc3ccc([N+](=O)[O-])cc32)c2ccc([N+](=O)[O-])cc2)cc1` gave a melting point of 233 °C.

As for `COC(=O)C(N)Cc1ccc(N/C(=C2\C(=O)Nc3ccc([N+](=O)[O-])cc32)c2ccccc2)cc1.Cl` (centres unmarked), the melting point is 215 °C (dec.).

For `Cl.NC(Cc1ccc(N/C(=C2\C(=O)Nc3ccc([N+](=O)[O-])cc32)c2ccccc2)cc1)C(=O)O` (centres unmarked), the melting point was 225 °C (dec.).

For the molecule `Cl.O=C1Nc2ccc([N+](=O)[O-])cc2/C1=C(/Nc1ccc(CNCc2ccccc2)cc1)c1ccccc1`, the melting point was 298 to 300 °C.

In turn, `Cl.Cl.O=C1Nc2ccc([N+](=O)[O-])cc2/C1=C(/Nc1ccc(CN2CCNCC2)cc1)c1ccccc1` displayed a melting point of more than 370 °C.

In the case of `Cl.NCC(=O)Nc1ccc(N/C(=C2\C(=O)Nc3ccccc32)c2ccccc2)cc1`, the melting point was in the range of 289 to 290 °C.

With `CN(C(=O)CCN)c1ccc(N/C(=C2\C(=O)Nc3ccccc32)c2ccccc2)cc1.Cl`, the melting point was in the range of 97 to 99 °C.

The molecule `CCN(CC)C(=O)c1ccc(N/C(=C2\C(=O)Nc3ccccc32)c2ccccc2)cc1` showed a melting point of 202 to 204 °C.

With `CCN(CC)CC(=O)Nc1ccc(N/C(=C2\C(=O)Nc3ccccc32)c2ccccc2)cc1.Cl`, the melting point was 267 to 269 °C.

For the molecule `CN(C)CC(=O)N(C)c1ccc(N/C(=C2\C(=O)Nc3ccccc32)c2ccccc2)cc1.Cl`, the melting point lay in the range of 290 to 292 °C.

In the case of `CN(C(=O)CN1CCNCC1)c1ccc(N/C(=C2\C(=O)Nc3ccccc32)c2ccccc2)cc1.Cl.Cl`, the melting point was 255 to 258 °C (dec.).

`Cl.NCC(=O)NCc1ccc(N/C(=C2\C(=O)Nc3ccccc32)c2ccccc2)cc1` gave a melting point of 190 to 195 °C.

`CCN(CC)CC(=O)Nc1ccc(N/C(=C2\C(=O)Nc3ccc([N+](=O)[O-])cc32)c2ccccc2)cc1.Cl` registered a melting point of 287 to 288 °C.

`O=C1Nc2ccccc2/C1=C(/Nc1ccccc1)c1ccccc1` [Example 1, (Z)-3-(1-Anilino-1-phenyl-methylidene)-2-indolinone] showed a melting point of 325 °C.

For the molecule `COc1ccc(N/C(=C2\C(=O)Nc3ccccc32)c2ccccc2)cc1` [Example 2, (Z)-3-[1-(4-methoxy-phenylamino)-1-phenyl-methylidene]-2-indolinone], the melting point is 267 to 270 °C.

`COc1cccc(N/C(=C2\C(=O)Nc3ccccc32)c2ccccc2)c1` [Example 3, (Z)-3-[1-(3-methoxy-phenylamino)-1-phenyl-methylidene]-2-indolinone] came in with a melting point of 218 to 221 °C.

Take `COc1ccccc1N/C(=C1\C(=O)Nc2ccccc21)c1ccccc1` [Example 4, (Z)-3-[1-(2-methoxy-phenylamino)-1-phenyl-methylidene]-2-indolinone]: the melting point was 237 °C.

Take `COCc1cccc(N/C(=C2\C(=O)Nc3ccccc32)c2ccccc2)c1` [Example 5, (Z)-3-[1-(3-methoxymethyl-phenylamino)-1-phenyl-methylidene]-2-indolinone]: the melting point lay in the range of 182 to 184 °C.

For `Cc1cccc(N/C(=C2\C(=O)Nc3ccccc32)c2ccccc2)c1` [Example 6, (Z)-3-[1-(3-methyl-phenylamino)-1-phenyl-methylidene]-2-indolinone], the melting point fell in the range of 218 to 220 °C.

On to `COC(=O)c1ccccc1N/C(=C1\C(=O)Nc2ccccc21)c1ccccc1` [Example 7, (Z)-3-[1-(2-methoxycarbonyl-phenylamino)-1-phenyl-methylidene]-2-indolinone], for which the melting point was in the range of 241 to 244 °C.

`O=C1Nc2ccccc2/C1=C(/Nc1ccccc1C(=O)O)c1ccccc1` [Example 8, (Z)-3-[1-(2-carboxy-phenylamino)-1-phenyl-methylidene]-2-indolinone]: the melting point fell in the range of 227 to 230 °C.

The molecule `NC(=O)c1cccc(N/C(=C2\C(=O)Nc3ccccc32)c2ccccc2)c1` [Example 10, (Z)-3-{1-[3-(aminocarbonyl)phenylamino]-1-phenyl-methylidene}-2-indolinone] showed a melting point of 258 to 263 °C.

In the case of `CCOC(=O)Cc1cccc(N/C(=C2\C(=O)Nc3ccccc32)c2ccccc2)c1` [Example 11, (Z)-3-[1-(3-ethoxycarbonylmethyl-phenylamino)-1-phenyl-methylidene]-2-indolinone], the melting point is 178 to 181 °C.

The molecule `O=C(O)Cc1cccc(N/C(=C2\C(=O)Nc3ccccc32)c2ccccc2)c1` [Example 12, (Z)-3-[1-(3-carboxymethyl-phenylamino)-1-phenyl-methylidene]-2-indolinone] gave a melting point of 268 to 270 °C.

Regarding `CCOC(=O)c1ccc(N/C(=C2\C(=O)Nc3ccccc32)c2ccccc2)cc1` [Example 13, (Z)-3-[1-(4-ethoxycarbonyl-phenylamino)-1-phenyl-methylidene]-2-indolinone], the melting point was 227 to 228 °C.

Turning to `CCOC(=O)c1cccc(N/C(=C2\C(=O)Nc3ccccc32)c2ccccc2)c1` [Example 14, (Z)-3-[1-(3-ethoxycarbonyl-phenylamino)-1-phenyl-methylidene]-2-indolinone], the melting point lay within 194 to 195 °C.

`O=C(O)Cc1ccc(N/C(=C2\C(=O)Nc3ccccc32)c2ccccc2)cc1` [Example 16, (Z)-3-[1-(4-carboxymethyl-phenylamino)-1-phenyl-methylidene]-2-indolinone] registered a melting point of 214 to 216 °C.

For the molecule `O=C1Nc2ccccc2/C1=C(/Nc1ccc(C(=O)O)cc1)c1ccccc1` [Example 17, (Z)-3-[1-(4-carboxy-phenylamino)-1-phenyl-methylidene]-2-indolinone], the melting point lay within 312 to 316 °C.

On to `NC(=O)c1ccc(N/C(=C2\C(=O)Nc3ccccc32)c2ccccc2)cc1` [Example 20, (Z)-3-[1-(4-aminocarbonyl-phenylamino)-1-phenyl-methylidene]-2-indolinone], for which the melting point is 321 to 323 °C.
